In patent publication US20230265157A1, “MHC MULTIMER EXPRESSION CONSTRUCTS AND USES THEREOF” (priority 2020, published 2023):

Test system: WT-1-specific T cells
Assay: Specific cell staining / titration on WT-1-specific T cells
Format: cell-based
Conditions: untreated, digested and WT-1-exchanged tetramers at 1 nM and 20 nM
Source text: The amino acid sequence of the Y84A HLA alpha chain is shown in SEQ ID NO: 321. This mutation is known in the art to stabilize binding of the tethered peptide by reducing steric conflict with the peptide linker.

Y84A variant of the A*02:01 tetramer
staining of NLV- and WT-1-specific CD8+ T cells: converting NLV reactivity to WT-1 reactivity
